In PubChem BioAssay (NCI):
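96-well plates; 48 h exposure; 5 concentrations. Endpoints by linear interpolation between flanking doses. Not reached: highest tested concentration assigned. TGI marks complete inhibition of growth.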

Legend:
Test in all cases: growth of human tumour cells (NCI), 48 h
HT29 colon = system: HT29 colon
K-562 leukemia = system: K-562 leukemia
LOX IMVI melanoma = system: LOX IMVI melanoma
NCI-H23 lung = system: NCI-H23 lung
RPMI-8226 leukemia = system: RPMI-8226 leukemia
RXF 393 renal = system: RXF 393 renal
SF-539 CNS = system: SF-539 CNS
SK-MEL-5 melanoma = system: SK-MEL-5 melanoma
SW-620 colon = system: SW-620 colon
T-47D breast = system: T-47D breast

SMILES	TGI (HT29 colon) [µM]	TGI (K-562 leukemia) [µM]	TGI (LOX IMVI melanoma) [µM]	TGI (NCI-H23 lung) [µM]	TGI (RPMI-8226 leukemia) [µM]	TGI (RXF 393 renal) [µM]	TGI (SF-539 CNS) [µM]	TGI (SK-MEL-5 melanoma) [µM]	TGI (SW-620 colon) [µM]	TGI (T-47D breast) [µM]
CCOc1ccccc1NC(=O)CCc1nnc2s/c(=C\CCc3ccccc3)c(=O)n12	> 100	> 100	> 100	> 100	> 100	> 100	> 100	> 100	> 100	
O=C(CC/C(C/C(=N/O)c1ccc(F)cc1)=N/O)N(Cc1ccccc1)Cc1ccccc1	> 100	> 100	> 100	> 100	> 100	> 100	> 100	> 100	> 100	
NC(=O)N/N=C(\Cc1nc2ccc(C(=O)c3ccccc3)cc2[nH]c1=O)C(=O)Nc1ccc(Br)cc1	> 100	> 100	> 100	> 100	> 100	> 100	> 100	> 100	> 100	
Cc1ccc(-c2ccc(Nc3c4ccccc4nc4ccccc34)cc2)cn1	4.75	10.7	6.54	88.7	4.54		21.1	16.5	14.9	5.44
O=C(O)c1cc2ccccc2c(N=Nc2c([N+](=O)[O-])cc([N+](=O)[O-])cc2S(=O)(=O)O)c1O	> 100	> 100	> 100	> 100	> 100	> 100		> 100	> 100	
Cc1ccc(S(=O)(=O)N2CCC3(C(/C=C/c4ccccc4)=Nc4ccccc43)C2c2ccccc2)cc1 (stereo unspecified)	> 100	> 100	> 100	> 100	> 100	> 100	> 100	> 100	> 100	
COC(=O)C1=C(C(=O)OC)C23C=CC=CC24C(C(=O)OC)=C(C(=O)OC)C4C1C3 (stereo unspecified)	> 100	> 100		> 100	> 100	> 100	> 100	> 100	> 100	
CC1C=C(OC(=O)c2ccccc2)C(=O)C(n2cc(F)c(=O)n(C(=O)c3ccccc3)c2=O)O1 (stereo unspecified)	> 100	55.1	55	> 100	> 100	81.7	> 100	> 100	96.6	
CN(C)c1ccc(/C=C2\CNC/C(=C\c3ccc(N(C)C)cc3)C2=O)cc1	24.1	> 100	37	> 100	> 100	44	> 100	> 100		
NC(=O)c1csc(C2C=CC(CO)O2)n1 (stereo unspecified)	> 100	> 100	> 100	> 100	> 100		> 100		> 100	
CC(=O)O[C@H]1[C@@H]2[C@@H]3[C@@H](C[C@H]1C)[C@@H](C)CO[C@@]1(C)CC/C=C(/C)C[C@@H]2O[C@@H]31	> 100	> 100	> 100	> 100	> 100	> 100	> 100	> 100	> 100	
Cc1cc(Cc2cc(C)c(NC(=O)C(=O)C3C(=O)NC(=S)NC3=O)c(C(C)C)c2)cc(C(C)C)c1NC(=O)C(=O)C1C(=O)NC(=S)NC1=O	> 100	> 100	> 100	> 100	> 100	> 100			> 100	
